These results are taken from patent US20150057375A1, “USE OF IMPROVED N-ALKYL PYRROLIDONE SOLVENT” (TAMINCO, priority 2012, published 2015).

For data set [1] the following is noted: EU classification / screening test; cited from earlier work.
In data set [2] the test system is female Han Wistar rat (embryo and foetus). Kind of data set: Screening study of effects on development of the embryo and foetus after gavage of pregnant rats (similar to OECD 422). It is filed as in vivo. As to conditions: for Bone and cartilage abnormalities and variations / ossification and supernumerary ribs; test item-related effects in the foetuses / Weights of the foetuses: 100 mg/kg body weight/day to dams. As for the experimental part: The purpose of this study was to detect effects of 4 test items or compounds on the development of the embryo and foetus consequent to exposure of the female Han Wistar rat to the test items from day 6 post coitum (implantation) to day 20 post coitum (the day prior to Caesarean section). Particular attention was given to the foetal skeleton. Each group received one test compound, at a dose level of 100 or 500 mg/kg/day. The results were compared to a negative control group, which were administered distilled water (Aqua dest.).
Each group consisted of 5 mated females, treated by gavage, once daily as follows:
A standard dose volume of […] body weight with a daily adjustment to the actual body weight was used.
The foetuses were removed from the uterus, sexed, weighed individually, examined for gross external abnormalities, sacrificed by a subcutaneous injection of sodium pentobarbital, eviscerated and with the exception of over the paws, the skin was removed and discarded. Carcasses were processed through solutions of ethanol, glacial acetic acid with Alcian blue (for cartilage staining), potassium hydroxide with Alizarin red S (for clearing and staining ossified bone) and aqueous glycerine for preservation and storage. The skeletons were examined and all abnormal findings and variations were recorded.

A further data set deals with rat. As to conditions: in vivo; cited from earlier work.
The mark [3] stands for this setting: 100 mg/kg body weight/day, gavage.
Where [4] appears, read: 500 mg/kg body weight/day to dams.
Where [5] appears, read: 500 mg/kg body weight/day, gavage.
Where [6] appears, read: 500 mg/kg body weight/day, gavage once daily, day 6-20 post coitum, 5 mated females per group.

Each structure is given as a SMILES string. “Also recorded” adds a separate entry of the source.

For the compound `CC1CCC(=O)N1C` (centres unmarked) [DMP, 1,5-dimethylpyrrolidone], in data set [1], the Reprotoxicity entry was “suspected as being reprotoxic”.
With `CC(C)CN1CCCC1=O` [N-isobutylpyrrolidone], in data set [2], the “Bone and cartilage abnormalities and variations / ossification and supernumerary ribs; test item-related effects in the foetuses” value is listed as “no test item-related findings; also recorded: No test item-related effects”; the “Weights of the foetuses” value was “not affected”. In data set [2] (setting [3]), the “Maternal mean body weight, body weight gain and corrected body weight gain” value is “no effects; also recorded: not affected”; the “Maternal mean food consumption vs control group” value is recorded as “no effects”.
With `CC(C)N1CCCC1=O` [N-isopropylpyrrolidone], in data set [2] (setting [4]), the “Incidence of cervical ribs in foetuses” value is on record as “clearly increased incidence”, the “Incidence of zygomatic arch fusion in the skull of foetuses” value is on record as “slightly increased”, the “Incompletely ossified cranial structures in foetuses” value was “slightly increased” and the “Number of foetuses per dam” value is “decreased”. Besides, in data set [2] (setting [4]), the “Post-implantation loss and embryonic resorptions” value is recorded as “increased”; the “Weights of the foetuses (male and female)” value is on record as “statistically significantly reduced”. Also, in data set [2] (setting [5]), the “Maternal absolute body weight” value is given as “did not have a clear effect”; the “Maternal body weight gain” value is recorded as “statistically significantly reduced”; the “Maternal corrected body weight gain” value is reported as “reduced but not statistically significantly”; the “Maternal food consumption at start of treatment, days 6-9 p.c.” value is reported as “decreased slightly”. Further, in data set [2] (setting [5]), the “Maternal mean food consumption after days 6-9 p.c. / overall vs control group” value is “recovered thereafter”. Further, the “Bedding in the mouth (females/dams affected)” value in data set [2] (setting [6]) is 4.
Regarding `CCCCN1CCCC1=O` [N-n-butylpyrrolidone], in data set [2], the “Bone and cartilage abnormalities and variations / ossification and supernumerary ribs; test item-related effects in the foetuses” value is “no test item-related findings; also recorded: No test item-related effects”; the “Weights of the foetuses” value is on record as “not affected”. In data set [2] (setting [3]), the “Maternal mean body weight, body weight gain and corrected body weight gain” value is reported as “No effects”; the “Maternal mean food consumption vs control group” value is “No effects; also recorded: not considered to have been affected”. Further, the “Bedding in the mouth (females affected)” value in data set [2] (100 mg/kg body weight/day, gavage once daily, day 6-20 post coitum, 5 mated females per group) is recorded as “one female”.
On to `CCCN1CCCC1=O` [N-n-propylpyrrolidone], for which, in data set [2] (setting [4]), the “Incidence of non-ossified cervical vertebral bodies and supernumerary ribs in foetuses” value is reported as “slightly increased incidence”; the “Incidence of zygomatic arch fusion in the skull of foetuses” value is on record as “increased incidence”; the “Weights of the foetuses (male and female)” value is “statistically significantly reduced”. In data set [2] (setting [5]), the “Maternal absolute body weight” value is recorded as “at no time statistically significantly reduced”; the “Maternal body weight gain” value is reported as “statistically significantly reduced”; the “Maternal corrected body weight gain” value is given as “reduced without statistical significance”; the “Maternal food consumption at start of treatment, days 6-9 p.c.” value is on record as “statistically significantly reduced”. Besides, in data set [2] (setting [6]), the “Bedding in the mouth (females/dams affected)” value is listed as “all females”. Besides, in data set [2] (500 mg/kg body weight/day, treatment period days 6-21 p.c.), the “Mean food consumption compared to the control group” value was −9.1%. In addition, in data set [2] (500 mg/kg body weight/day, control group 11.1%), the “Maternal corrected body weight gain” value is on record as 7.6%. In data set [2] (500 mg/kg body weight/day, control group 49%), the “Maternal body weight gain over the treatment period” value was found to be 36%.
In the case of `CN1CCCC1=O` [NMP, N-methylpyrrolidone], in data set [1], the Reprotoxicity result is on record as “reprotoxic category 2”. Moreover, the “Toxicity, LD50 oral rat” value in the data set with rat is reported as 3914 mg/kg.
